Experimental data published in ChEMBL document CHEMBL1153482, “Design of selective Cathepsin inhibitors” (Bioorg Med Chem Lett, 2009).

Molecular target: T1, Cathepsin K (Homo sapiens, UniProt P43235)
T1 sequence (P43235 whole entry): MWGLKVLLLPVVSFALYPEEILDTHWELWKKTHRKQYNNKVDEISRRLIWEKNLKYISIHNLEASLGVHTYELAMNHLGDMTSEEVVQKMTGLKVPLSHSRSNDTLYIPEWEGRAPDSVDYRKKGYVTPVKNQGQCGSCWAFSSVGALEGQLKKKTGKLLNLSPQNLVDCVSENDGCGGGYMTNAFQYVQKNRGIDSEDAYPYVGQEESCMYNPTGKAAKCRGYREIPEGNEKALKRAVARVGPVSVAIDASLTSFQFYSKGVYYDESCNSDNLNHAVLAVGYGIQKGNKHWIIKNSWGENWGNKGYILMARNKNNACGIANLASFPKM
Assay: Inhibition of cathepsin K assessed as inhibition of fluorogenic substrate cleavage

Row | SMILES | IC50
1 | N#CCNC(=O)[C@H](Cc1cccc(-c2nncs2)c1)NC(=O)c1ccccc1 | 631 nM
2 | N#CCNC(=O)[C@H](Cc1cccc(-c2cccnc2)c1)NC(=O)c1ccccc1 | > 7940 nM
3 | N#CCNC(=O)[C@H](Cc1cccc(Cl)c1)NC(=O)c1ccccc1 | 3160 nM
4 | Cn1nc(C(C)(C)C)cc1C(=O)N[C@@H](Cc1cccc(-c2nnco2)c1)C(=O)NCC#N | 126 nM
5 | COCc1nnc(-c2cccc(C[C@H](NC(=O)c3cc(C(C)(C)C)nn3C)C(=O)NCC#N)c2)o1 | 126 nM

Other lines, results leading:

Row | IC50 | SMILES
6 | > 10000 nM | N#CCNC(=O)[C@H](Cc1cccc(-c2ccn[nH]2)c1)NC(=O)c1ccccc1
7 | > 10000 nM | N#CCNC(=O)[C@H](Cc1cccc(-c2ccncc2)c1)NC(=O)c1ccccc1
8 | 63.1 nM | Cc1nnc(-c2cccc(C[C@H](NC(=O)c3cc(C(C)(C)C)nn3C)C(=O)NCC#N)c2)o1
9 | 126 nM | Cn1nc(C(C)(C)C)cc1C(=O)N[C@@H](Cc1cccc(-c2nncs2)c1)C(=O)NCC#N
10 | 3160 nM | Cc1nnc(-c2cccc(C[C@H](NC(=O)c3cc(C(C)(C)C)nn3C)C(=O)NCC#N)c2)s1
11 | 1260 nM | N#CCNC(=O)[C@H](Cc1cccc(-c2nnco2)c1)NC(=O)c1ccccc1
12 | 1000 nM | Cn1nc(C(C)(C)C)cc1C(=O)N[C@@H](Cc1cccc(-c2nnc(CN)o2)c1)C(=O)NCC#N

Molecular target: T2, Cathepsin L2 (Homo sapiens, UniProt O60911)
T2 sequence (O60911 whole entry): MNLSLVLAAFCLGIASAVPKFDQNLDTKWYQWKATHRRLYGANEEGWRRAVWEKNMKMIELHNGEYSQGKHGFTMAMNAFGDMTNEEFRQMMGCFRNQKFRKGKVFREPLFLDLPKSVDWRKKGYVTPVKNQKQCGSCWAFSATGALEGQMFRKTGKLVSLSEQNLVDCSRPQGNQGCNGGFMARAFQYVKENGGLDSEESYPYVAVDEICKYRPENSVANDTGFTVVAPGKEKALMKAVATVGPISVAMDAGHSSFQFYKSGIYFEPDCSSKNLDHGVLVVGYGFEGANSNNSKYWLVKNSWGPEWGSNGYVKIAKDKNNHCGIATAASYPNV
Assay: Inhibition of cathepsin L2 assessed as inhibition of fluorogenic substrate cleavage

Row | SMILES | IC50
13 | N#CCNC(=O)[C@H](Cc1cccc(-c2nncs2)c1)NC(=O)c1ccccc1 | 25.1 nM
14 | N#CCNC(=O)[C@H](Cc1cccc(-c2cccnc2)c1)NC(=O)c1ccccc1 | 3980 nM
15 | N#CCNC(=O)[C@H](Cc1cccc(Cl)c1)NC(=O)c1ccccc1 | 794 nM
16 | Cn1nc(C(C)(C)C)cc1C(=O)N[C@@H](Cc1cccc(-c2nnco2)c1)C(=O)NCC#N | 20 nM
17 | COCc1nnc(-c2cccc(C[C@H](NC(=O)c3cc(C(C)(C)C)nn3C)C(=O)NCC#N)c2)o1 | 2 nM

Now from value to compound:

Row | IC50 | SMILES
18 | 3980 nM | N#CCNC(=O)[C@H](Cc1cccc(-c2ccn[nH]2)c1)NC(=O)c1ccccc1
19 | 3160 nM | N#CCNC(=O)[C@H](Cc1cccc(-c2ccncc2)c1)NC(=O)c1ccccc1
20 | 6.31 nM | Cc1nnc(-c2cccc(C[C@H](NC(=O)c3cc(C(C)(C)C)nn3C)C(=O)NCC#N)c2)o1
21 | 6.31 nM | Cn1nc(C(C)(C)C)cc1C(=O)N[C@@H](Cc1cccc(-c2nncs2)c1)C(=O)NCC#N
22 | 3.16 nM | Cc1nnc(-c2cccc(C[C@H](NC(=O)c3cc(C(C)(C)C)nn3C)C(=O)NCC#N)c2)s1
23 | 158 nM | N#CCNC(=O)[C@H](Cc1cccc(-c2nnco2)c1)NC(=O)c1ccccc1
24 | 39.8 nM | Cn1nc(C(C)(C)C)cc1C(=O)N[C@@H](Cc1cccc(-c2nnc(CN)o2)c1)C(=O)NCC#N

Molecular target: Cathepsin B (Homo sapiens, UniProt P07858)
Assay: Inhibition of human liver cathepsin B assessed as inhibition of fluorogenic substrate cleavage

Row | SMILES | IC50
25 | N#CCNC(=O)[C@H](Cc1cccc(-c2nncs2)c1)NC(=O)c1ccccc1 | > 10 µM
26 | N#CCNC(=O)[C@H](Cc1cccc(-c2cccnc2)c1)NC(=O)c1ccccc1 | 7.94 µM
27 | N#CCNC(=O)[C@H](Cc1cccc(Cl)c1)NC(=O)c1ccccc1 | 5.01 µM
28 | Cn1nc(C(C)(C)C)cc1C(=O)N[C@@H](Cc1cccc(-c2nnco2)c1)C(=O)NCC#N | > 10 µM
29 | COCc1nnc(-c2cccc(C[C@H](NC(=O)c3cc(C(C)(C)C)nn3C)C(=O)NCC#N)c2)o1 | > 10 µM

More lines, now with the values ahead:

Row | IC50 | SMILES
30 | 5.01 µM | N#CCNC(=O)[C@H](Cc1cccc(-c2ccn[nH]2)c1)NC(=O)c1ccccc1
31 | > 10 µM | N#CCNC(=O)[C@H](Cc1cccc(-c2ccncc2)c1)NC(=O)c1ccccc1
32 | > 10 µM | Cc1nnc(-c2cccc(C[C@H](NC(=O)c3cc(C(C)(C)C)nn3C)C(=O)NCC#N)c2)o1
33 | > 10 µM | Cn1nc(C(C)(C)C)cc1C(=O)N[C@@H](Cc1cccc(-c2nncs2)c1)C(=O)NCC#N
34 | > 10 µM | Cc1nnc(-c2cccc(C[C@H](NC(=O)c3cc(C(C)(C)C)nn3C)C(=O)NCC#N)c2)s1
35 | > 10 µM | N#CCNC(=O)[C@H](Cc1cccc(-c2nnco2)c1)NC(=O)c1ccccc1
36 | 3.98 µM | Cn1nc(C(C)(C)C)cc1C(=O)N[C@@H](Cc1cccc(-c2nnc(CN)o2)c1)C(=O)NCC#N

Molecular target: Procathepsin L (Homo sapiens, UniProt P07711)
Assay: Inhibition of cathepsin L assessed as inhibition of fluorogenic substrate cleavage

Chain of Procathepsin L (P07711 whole entry): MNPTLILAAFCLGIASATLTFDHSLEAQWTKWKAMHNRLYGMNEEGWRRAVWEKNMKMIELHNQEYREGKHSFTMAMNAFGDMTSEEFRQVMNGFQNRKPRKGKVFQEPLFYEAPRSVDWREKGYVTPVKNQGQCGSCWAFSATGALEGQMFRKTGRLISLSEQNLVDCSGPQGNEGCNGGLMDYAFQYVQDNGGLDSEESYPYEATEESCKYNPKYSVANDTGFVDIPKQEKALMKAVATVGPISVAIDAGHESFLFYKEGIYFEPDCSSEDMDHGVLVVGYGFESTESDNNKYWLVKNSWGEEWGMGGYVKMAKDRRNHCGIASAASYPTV

Row | SMILES | IC50
37 | N#CCNC(=O)[C@H](Cc1cccc(-c2nncs2)c1)NC(=O)c1ccccc1 | 200 nM
38 | N#CCNC(=O)[C@H](Cc1cccc(-c2cccnc2)c1)NC(=O)c1ccccc1 | 2000 nM
39 | N#CCNC(=O)[C@H](Cc1cccc(Cl)c1)NC(=O)c1ccccc1 | 251 nM
40 | Cn1nc(C(C)(C)C)cc1C(=O)N[C@@H](Cc1cccc(-c2nnco2)c1)C(=O)NCC#N | 15.8 nM
41 | COCc1nnc(-c2cccc(C[C@H](NC(=O)c3cc(C(C)(C)C)nn3C)C(=O)NCC#N)c2)o1 | 3.98 nM

Continued, values first:

Row | IC50 | SMILES
42 | 1580 nM | N#CCNC(=O)[C@H](Cc1cccc(-c2ccn[nH]2)c1)NC(=O)c1ccccc1
43 | 1580 nM | N#CCNC(=O)[C@H](Cc1cccc(-c2ccncc2)c1)NC(=O)c1ccccc1
44 | 5.01 nM | Cc1nnc(-c2cccc(C[C@H](NC(=O)c3cc(C(C)(C)C)nn3C)C(=O)NCC#N)c2)o1
45 | 5.01 nM | Cn1nc(C(C)(C)C)cc1C(=O)N[C@@H](Cc1cccc(-c2nncs2)c1)C(=O)NCC#N
46 | 126 nM | Cc1nnc(-c2cccc(C[C@H](NC(=O)c3cc(C(C)(C)C)nn3C)C(=O)NCC#N)c2)s1
47 | 501 nM | N#CCNC(=O)[C@H](Cc1cccc(-c2nnco2)c1)NC(=O)c1ccccc1
48 | 2 nM | Cn1nc(C(C)(C)C)cc1C(=O)N[C@@H](Cc1cccc(-c2nnc(CN)o2)c1)C(=O)NCC#N

Molecular target: Cathepsin S (Homo sapiens, UniProt P25774)
Assay: Inhibition of cathepsin S assessed as inhibition of fluorogenic substrate cleavage

Chain of Cathepsin S (P25774 whole entry): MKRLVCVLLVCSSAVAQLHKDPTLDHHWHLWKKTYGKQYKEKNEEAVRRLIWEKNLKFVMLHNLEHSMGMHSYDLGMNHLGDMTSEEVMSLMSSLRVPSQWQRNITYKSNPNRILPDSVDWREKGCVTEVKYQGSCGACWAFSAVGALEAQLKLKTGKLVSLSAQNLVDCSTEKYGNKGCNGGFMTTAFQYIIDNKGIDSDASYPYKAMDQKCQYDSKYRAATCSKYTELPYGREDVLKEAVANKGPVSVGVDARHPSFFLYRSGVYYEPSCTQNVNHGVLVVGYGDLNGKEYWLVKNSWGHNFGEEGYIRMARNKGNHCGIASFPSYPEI

Row | SMILES | IC50
49 | N#CCNC(=O)[C@H](Cc1cccc(-c2nncs2)c1)NC(=O)c1ccccc1 | 2.51 nM
50 | N#CCNC(=O)[C@H](Cc1cccc(-c2cccnc2)c1)NC(=O)c1ccccc1 | 126 nM
51 | N#CCNC(=O)[C@H](Cc1cccc(Cl)c1)NC(=O)c1ccccc1 | 126 nM
52 | Cn1nc(C(C)(C)C)cc1C(=O)N[C@@H](Cc1cccc(-c2nnco2)c1)C(=O)NCC#N | 63.1 nM
53 | COCc1nnc(-c2cccc(C[C@H](NC(=O)c3cc(C(C)(C)C)nn3C)C(=O)NCC#N)c2)o1 | 79.4 nM

Next, values leading:

Row | IC50 | SMILES
54 | 316 nM | N#CCNC(=O)[C@H](Cc1cccc(-c2ccn[nH]2)c1)NC(=O)c1ccccc1
55 | 251 nM | N#CCNC(=O)[C@H](Cc1cccc(-c2ccncc2)c1)NC(=O)c1ccccc1
56 | 79.4 nM | Cc1nnc(-c2cccc(C[C@H](NC(=O)c3cc(C(C)(C)C)nn3C)C(=O)NCC#N)c2)o1
57 | 15.8 nM | Cn1nc(C(C)(C)C)cc1C(=O)N[C@@H](Cc1cccc(-c2nncs2)c1)C(=O)NCC#N
58 | 316 nM | Cc1nnc(-c2cccc(C[C@H](NC(=O)c3cc(C(C)(C)C)nn3C)C(=O)NCC#N)c2)s1
59 | 20 nM | N#CCNC(=O)[C@H](Cc1cccc(-c2nnco2)c1)NC(=O)c1ccccc1
60 | 200 nM | Cn1nc(C(C)(C)C)cc1C(=O)N[C@@H](Cc1cccc(-c2nnc(CN)o2)c1)C(=O)NCC#N
